The target of assay [1] is human RORγt ligand binding domain (RORγt LBD) (Homo sapiens (Human), UniProt P51449). The assay is described as follows: RORγt ThermoFluor assay. The source says: ThermoFluor® is a fluorescence based assay that estimates ligand binding affinities by measuring the effect of a ligand on protein thermal stability (Pantoliano, M. W., Petrella, E. C., Kwasnoski, J. D., Lobanov, V. S., Myslik, J., Graf, E., Carver, T., Asel, E., Springer, B. A., Lane, P., and Salemme, F. R. (2001) High-density miniaturized thermal shift assays as a general strategy for drug discovery. J Biomol Screen 6, 429-40, and Matulis, D., Kranz, J. K., Salemme, F. R., and Todd, M. J. (2005) Thermodynamic stability of carbonic anhydrase: measurements of binding affinity and stoichiometry using ThermoFluor. Biochemistry 44, 5258-66). This approach is applicable to a wide variety of systems, and rigorous in theoretical interpretation through quantitation of equilibrium binding constants (KD).
The shift in the melting point described as a ΔTm is proportional to the concentration and affinity of the ligand. The compound potency may be compared as a rank order of either values at a single compound concentration or in terms of KD values, estimated from concentration response curves.
RORγt ThermoFluor® Assay Construct
For the RORγt construct used in the ThermoFluor® assay, numbering for the nucleotide sequences was based on the reference sequence for human RORγt, transcript variant 2, NCBI Accession: NM 001001523.1 (SEQ ID NO:1). Nucleotides 850-1635 (SEQ ID NO:2) coding for the wild type human RORγt ligand binding domain (RORγt LBD) were cloned into the pHIS1 vector, a modified pET E. coli expression vector (Accelagen, San Diego), containing an in-frame N-terminal His-tag and a TurboTEV protease cleavage site (ENLYFQG, SEQ ID NO:3) upstream of the cloned insert sequence. The amino acid sequence for the RORγt construct used in the Thermofluor® assay is shown as SEQ ID NO:4.
ThermoFluor® experiments were carried out using instruments owned by Janssen Research and Development, L.L.C. through its acquisition of 3-Dimensional Pharmaceuticals, Inc. 1,8-ANS (Invitrogen) was used as a fluorescent dye. Protein and compound solutions are dispensed into black 384-well polypropylene PCR microplates (Abgene) and overlayed with silicone oil (1 μL, Fluka, type DC 200) to prevent evaporation.
Bar-coded assay plates are robotically loaded onto a thermostatically controlled PCR-type thermal block and then heated at a typical ramp-rate of 1° C./min for all experiments. Fluorescence was measured by continuous illumination with UV light (Hamamatsu LC6) supplied via fiber optic and filtered through a band-pass filter (380-400 nm; >6 OD cutoff). Fluorescence emission of the entire 384-well plate was detected by measuring light intensity using a CCD camera (Sensys, Roper Scientific) filtered to detect 500±25 nm, resulting in simultaneous and independent readings of all 384 wells. Images were collected at each temperature, and the sum of the pixel intensity in a given area of the assay plate was recorded versus temperature. Reference wells contained RORγt without compounds, and the assay conditions were as follows:
Project compounds were arranged in a pre-dosed mother plate (Greiner Bio-one) wherein compounds are serially diluted in 100% DMSO by 1:2 from a high concentration of 10 mM over 12 columns within a series (column 12 is a reference well containing DMSO, no compound). The compounds were robotically dispensed directly into assay plates (1×=46 nL) using a Hummingbird capillary liquid handling instrument (Digilab). Following compound dispense, protein and dye in buffer was added to achieve the final assay volume of 3 μL, followed by 1 μL of silicone oil.
The binding affinity was estimated as described previously (Matulis, D., Kranz, J. K., Salemme, F. R., and Todd, M. J. (2005) Thermodynamic stability of carbonic anhydrase: measurements of binding affinity and stoichiometry using ThermoFluor®. Biochemistry 44, 5258-66) using the following thermodynamic parameters of protein unfolding:
Reference RORγt Tm: 47.8° C.

Assay [2] concerns the target full-length human RORγt (GAL4-DBD-RORγt fusion) in HEK293T cells (Homo sapiens (Human), UniProt P51449). The assay is described as follows: RORγt (full-length human) reporter assay, conditions A or B. It counts as cell-based. To be noted: for IC50: HEK293T cells, read-out: RORγt (FL) Reporter Assay A or B, IC50. As for the experimental part:
RORγt (Full-Length Human) Reporter Assay:
(§1) HEK293T cells were plated at 35,000 per well in 96-well plate in medium of DMEM with 10% FBS. […] After overnight (16 to 20 hours) incubation, media were removed and cells were lysed with 50 μL Glo Lysis Buffer (Promega) for 10-15 minutes followed by 10 minute incubation with 50 μL Dual Glo reagent (Promega) at room temperature. Firefly luciferase luminescence was measured using a BMG Pherastar plate reader. To each well, 50 μL Stop and Glo reagent was added and incubated for 10 minutes at room temperature. Renilla luminescence was measured using a BMG Pherastar plate reader. To calculate the effect of compounds on RORγt activity, firefly values were normalized against values of DMSO only and values of reference compound at saturating concentration, then further normalized against Renilla signals. IC50s were generated by plotting final Renilla normalized data against compound concentration and percent inhibition was calculated against DMSO control.
as §1, with “at 8750 cells” for “at 35,000”, “in 384-well” for “in 96-well”, “with 20” for “with 50”, “well, 20” for “well, 50”

The mark [3] stands for this setting: HEK-293T, 3 μM compound concentration (footnote *), read-out: RORγt (FL) Reporter Assay A or B, % inhibition.

Molecules are shown by their SMILES. Marks after values point to notes of the source that are not given here.

Sequence of human RORγt ligand binding domain (RORγt LBD) (P51449 other isoform, or with tags, fused parts or gaps): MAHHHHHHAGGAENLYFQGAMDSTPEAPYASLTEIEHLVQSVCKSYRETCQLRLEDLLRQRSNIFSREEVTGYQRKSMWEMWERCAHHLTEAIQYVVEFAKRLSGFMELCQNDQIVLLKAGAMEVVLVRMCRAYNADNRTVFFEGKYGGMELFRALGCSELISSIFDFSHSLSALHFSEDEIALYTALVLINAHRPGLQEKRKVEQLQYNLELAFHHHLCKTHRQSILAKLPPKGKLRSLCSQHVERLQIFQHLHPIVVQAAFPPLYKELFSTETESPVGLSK
Sequence of full-length human RORγt (GAL4-DBD-RORγt fusion) in HEK293T cells (P51449 other isoform, or with tags, fused parts or gaps): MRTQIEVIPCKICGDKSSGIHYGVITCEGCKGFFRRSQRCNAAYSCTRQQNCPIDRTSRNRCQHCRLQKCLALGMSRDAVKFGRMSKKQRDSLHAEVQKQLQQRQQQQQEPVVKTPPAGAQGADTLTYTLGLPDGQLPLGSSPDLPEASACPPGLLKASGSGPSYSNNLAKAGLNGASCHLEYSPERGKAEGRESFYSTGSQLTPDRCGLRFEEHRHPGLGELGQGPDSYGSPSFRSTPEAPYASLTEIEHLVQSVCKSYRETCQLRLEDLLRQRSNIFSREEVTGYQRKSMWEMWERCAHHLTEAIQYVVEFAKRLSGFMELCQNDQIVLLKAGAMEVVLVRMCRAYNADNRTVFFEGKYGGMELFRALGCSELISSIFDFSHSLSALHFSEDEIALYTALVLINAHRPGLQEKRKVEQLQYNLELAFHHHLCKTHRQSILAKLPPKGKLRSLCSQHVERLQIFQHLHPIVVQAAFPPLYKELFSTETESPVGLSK

With `CCn1nc(C(=O)NC[C@@]2(O)CC[C@H](S(C)(=O)=O)C[C@@H]2O)c(Cl)c1-c1cnc(CC(C)(C)C(F)(F)F)cc1OC(F)F` (stereo in doubt) [Example 4, 4-Chloro-5-(4-(difluoromethoxy)-6-(3,3,3-trifluoro-2,2-dimethylpropyl)pyridin-3-yl)-N-(((1S*,2S*,4S*)-1,2-dihydroxy-4-(methylsulfonyl)cyclohexyl)methyl)-1-ethyl-1H-pyrazole-3-carboxamide], in assay [1], the affinity, expressed as Kd, was 9.1 nM. For the same compound, the IC50 in assay [2] worked out at 55 nM. Also, the inhibition at 3 µM in assay [2] (setting [3]) turned out to be 100%.

`CCn1nc(C(=O)NC[C@@]2(O)CC[C@H](S(C)(=O)=O)C[C@@H]2O)c(Cl)c1-c1cnc(CC(C)(C)C(F)F)cc1OC(F)F` (stereo in doubt) [Example 39, 4-Chloro-5-(6-(3,3-difluoro-2,2-dimethylpropyl)-4-(difluoromethoxy)pyridin-3-yl)-N-(((1S*,2S*,4S*)-1,2-dihydroxy-4-(methylsulfonyl)cyclohexyl)methyl)-1-ethyl-1H-pyrazole-3-carboxamide] yielded a dissociation constant Kd in assay [1] of 40 nM. Further, the IC50 in assay [2] is 730 nM. Besides, the inhibition at 3 µM in assay [2] (setting [3]) is 72%.

In assay [1], `CCn1nc(C(=O)NC[C@]2(O)CC[C@@H](S(C)(=O)=O)C[C@H]2O)c(Cl)c1-c1cnc(CC(C)(C)C(F)F)cc1OC(F)F` (stereo in doubt) [Example 40, 4-Chloro-5-(6-(3,3-difluoro-2,2-dimethylpropyl)-4-(difluoromethoxy)pyridin-3-yl)-N-(((1R*,2R*,4R*)-1,2-dihydroxy-4-(methylsulfonyl)cyclohexyl)methyl)-1-ethyl-1H-pyrazole-3-carboxamide] registered a Kd of 40 nM. Also, the IC50 in assay [2] amounted to 570 nM. In addition, in assay [2] (setting [3]), the inhibition at 3 µM turned out to be 84%.

In assay [1], `CCn1nc(C(=O)NC[C@@]2(O)CC[C@H](S(C)(=O)=O)C[C@@H]2O)c(C)c1-c1cnc(CC(C)(C)C(F)F)cc1OC(F)F` (stereo in doubt) [Example 43, 5-(6-(3,3-Difluoro-2,2-dimethylpropyl)-4-(difluoromethoxy)pyridin-3-yl)-N-(41S*,2S*,4S*)-1,2-dihydroxy-4-(methylsulfonyl)cyclohexyl)methyl)-1-ethyl-4-methyl-1H-pyrazole-3-carboxamide] returned a Kd of 66 nM. Further, in assay [2], the IC50 was 320 nM. In assay [2] (HEK-293T, 1 μM compound concentration (footnote ***), read-out: RORγt (FL) Reporter Assay A or B, % inhibition), the inhibition at 1 µM is 84%.

Turning to `CCn1nc(C(=O)NC[C@]2(O)CC[C@@H](S(C)(=O)=O)C[C@H]2O)c(C)c1-c1cnc(CC(C)(C)C(F)F)cc1OC(F)F` (stereo in doubt) [Example 44, 5-(6-(3,3-Difluoro-2,2-dimethylpropyl)-4-(difluoromethoxy)pyridin-3-yl)-N-(((1R*,2R*,4R*)-1,2-dihydroxy-4-(methylsulfonyl)cyclohexyl)methyl)-1-ethyl-4-methyl-1H-pyrazole-3-carboxamide], in assay [1], the Kd was 69 nM. Further, the concentration for half-maximal inhibition (IC50) in assay [2] was 890 nM. For the same compound, in assay [2] (setting [3]), the inhibition at 3 µM is 85%.

Compound `CCn1nc(C(=O)NC[C@]2(O)CC[C@@H](S(C)(=O)=O)C[C@H]2O)c(Cl)c1-c1ccc(CC(C)(C)C(F)(F)F)nc1OC(F)F` (stereo in doubt) [Example 47, 4-Chloro-5-(2-(difluoromethoxy)-6-(3,3,3-trifluoro-2,2-dimethylpropyl)pyridin-3-yl)-N-(((1R*,2R*,4R*)-1,2-dihydroxy-4-(methylsulfonyl)cyclohexyl)methyl)-1-ethyl-1H-pyrazole-3-carboxamide] gave a Kd in assay [1] of 1.7 nM. Further, the IC50 in assay [2] amounted to 44 nM. Besides, the inhibition at 3 µM in assay [2] (setting [3]) worked out at 95%.

Turning to `CCn1nc(C(=O)NC[C@@]2(O)CC[C@H](S(C)(=O)=O)C[C@@H]2O)c(Cl)c1-c1ccc(CC(C)(C)C(F)(F)F)nc1OC(F)F` (stereo in doubt) [Example 48, 4-Chloro-5-(2-(difluoromethoxy)-6-(3,3,3-trifluoro-2,2-dimethylpropyl)pyridin-3-yl)-N-(((1S*,2S*,4S*)-1,2-dihydroxy-4-(methylsulfonyl)cyclohexyl)methyl)-1-ethyl-1H-pyrazole-3-carboxamide], the affinity in assay [1], expressed as Kd, was 2 nM. For the same compound, the IC50 in assay [2] worked out at 5.7 nM. For the same compound, the inhibition at 3 µM in assay [2] (setting [3]) amounted to 101%.

The compound `CCn1nc(C(=O)NC[C@]2(O)CC[C@@H](S(N)(=O)=O)CC2)c(Cl)c1-c1cnc(CC(C)(C)C(F)(F)F)cc1OC(F)F` [Example 1, 4-Chloro-5-(4-(difluoromethoxy)-6-(3,3,3-trifluoro-2,2-dimethylpropyl)pyridin-3-yl)-1-ethyl-N-(((1s,4s)-1-hydroxy-4-sulfamoylcyclohexyl)methyl)-1H-pyrazole-3-carboxamide] displayed a Kd in assay [1] of 11 nM. In assay [2], the IC50 stood at 110 nM. Besides, the inhibition at 3 µM in assay [2] (setting [3]) worked out at 116%.

Take `CCn1nc(C(=O)NC[C@]2(O)CC[C@@H](S(N)(=O)=O)CC2)c(C)c1-c1cnc(CC(C)(C)C(F)(F)F)cc1OC(F)F` [Example 2, 5-(4-(Difluoromethoxy)-6-(3,3,3-trifluoro-2,2-dimethylpropyl)pyridin-3-yl)-1-ethyl-N-(((1s,4s)-1-hydroxy-4-sulfamoylcyclohexyl)methyl)-4-methyl-1H-pyrazole-3-carboxamide]: binding in assay [1] was characterised by a dissociation constant (Kd) of 29 nM. Moreover, in assay [2], the IC50 amounted to 930 nM. Besides, the inhibition at 3 µM in assay [2] (setting [3]) amounted to 104%.

`CCn1nc(C(=O)NC[C@H]2CC[C@H](S(=O)(=O)NC(C)=O)CC2)c(Cl)c1-c1cnc(CC(C)(C)C(F)(F)F)cc1OC(F)F` [Example 5, N-(((1r,4r)-4-(N-acetylsulfamoyl)cyclohexyl)methyl)-4-chloro-5-(4-(difluoromethoxy)-6-(3,3,3-trifluoro-2,2-dimethylpropyl)pyridin-3-yl)-1-ethyl-1H-pyrazole-3-carboxamide] showed a Kd in assay [1] of 8.7 nM. Also, in assay [2] (3 μM compound concentration (footnote *)), the “RORγt (FL) Reporter Assay A or B, % inhibition” value is recorded as 79* %. Besides, in assay [2], the IC50 came to 430 nM.

The values are drawn from patent US11034658B2, “Pyridinyl pyrazoles as modulators of RORγT” (Janssen Pharmaceutica NV, priority 2018, dated 2021).
